From US5302399A, “Slow-releasing pharmaceuticals prepared with alginic acid” (Snow Brand Milk Products Co., Ltd., priority 1988, dated 1994)

Columns and labels:
in vivo = test: in vivo; set-up: species or system Male beagle dogs; details: dog, po
Source text: Water was given ad libitum.
Water was given ad libitum during the test period.
In this test, alginic acid gel beads prepared using the low viscosity alginic acid gel beads (IL2, Kimizu Chemicals) were used.

clinical = test: clinical; set-up: species or system healthy human adults; details: in vivo, po

Question: Which results are given for `CC(C)NCC(O)COc1cccc2[nH]ccc12` (stereo not shown) [Pindolol powder, pindolol]?
Answer: AUC at 6 h (in vivo; 2.5 mg/kg): 238 ng·h/mL; MRT at 6 h (in vivo; 2.5 mg/kg): 1.74 h; AUC at 12 h (in vivo; 5 mg/kg): 311 ng·h/mL; MRT at 12 h (in vivo; 5 mg/kg): 1.98 h; MRT (clinical; human): 3.82 ± 0.32 h; Tmax (clinical; human): ~1 h; VRT (clinical): 7.44 ± 0.54 h^2
